Experimental data: PMC7502707, “Characterization and validation of a preventative therapy for hypertrophic cardiomyopathy in a murine model of the disease” (Proceedings of the National Academy of Sciences of the …, 2020)

Experiments:
[1] = test system: rats; details: cited from earlier work
[2] = test system: myocytes isolated from wt and cTnI-G203S mice; assay: Confocal imaging of F-actin (phalloidin) in myocytes from treated mice; assay type: in vivo, mouse; details: myocytes from cTnI-G203S mice treated 10 μM 3×/wk/5 wk, Pre HCM Rx
Experimental: Following completion of treatment regimens, myocytes were isolated and prepared for confocal imaging based on previously described methods ([29]). Detailed methods are provided in SI Appendix.
Echocardiographic measurement of left ventricular function were performed on mice under light methoxyflurane anesthesia using an i13L probe on a Vivid 7 Dimension ultrasound system (GE Healthcare, Little Chalfont, United Kingdom) as previously described (4, 7). Echocardiographic measurements were taken on M-mode in triplicate from separate mice at a sweep speed of 200 mm/s. Each n represents the average of quantitative measurements from wt or cTnI-G203S mice for each treatment group. […] FS was calculated by the formula [(LVEDD-LVESD)/EDD] x 100.
Cell size was determined as previously described (16). […]
To measure kidney toxicity, urea and creatinine concentration was assessed using QuantiChrom Urea and Creatinine assay kits respectively (BioAssay Systems, Hayward CA). To measure liver toxicity, alanine transaminase (ALT) and aspartate transaminase (AST) concentration was measured using Alanine Transaminase and Aspartate Transaminase assay kits respectively (BioAssay Systems, Hayward CA). […]

[3] = test system: BALB/c nude mice; details: mouse, in vivo
Experimental: Eight-week-old male BALB/c nude mice were used to assess in vivo cardiac uptake and bio-distribution of sulfo-Cyanine7-labeled AID(S)-TAT and AID-TAT (Cy7, W&J PharmaChem) using a CRi Maestro 2 multispectral imaging system (Cambridge Research and Instrumentation) based on previously described methods ([63]). All studies were performed in mice anesthetized with isoflurane (2 to 4%), followed by intraperitoneal injection of pentobarbitone sodium (240 mg/kg), as approved by the Animal Ethics Committee of The University of Western Australia in accordance with the 2013 Australian Code for the Care and Use of Animals for Scientific Purposes ([58]). Detailed methods are provided in SI Appendix.
50 ms, Molecular Probes, Eugene, Oregon) (5). Cells were incubated in calcium-free HBS (supplemented with 3 mM EGTA and 200 nM JC-1) for at least 3 h prior to measuring changes in Ψm. Sodium cyanide (NaCN, 40 mM, mitochondrial electron transport blocker) was added at the end of each experiment to collapse Ψm, confirming that the JC-1 signal was indicative of Ψm.
Additionally, individual 580 nm and 535 nm wavelength signals were assessed in each experiment to determine whether the fluorescent indicator was accurately measuring Ψm. […] Ratiometric JC-1 or flavoprotein fluorescent signals were quantified by manually tracing myocytes and subtracting an equivalent background region […]

Sequence: QQLEEDLKGYLDWITQAE [AID-TAT]
- contractility and cardiac hypertrophy ([1]; following coronary artery occlusion in rats): improves contractility and prevents the development of cardiac hypertrophy
- blood pressure and cardiac myocyte calcium influx ([1]; rat, in vivo): without decreasing blood pressure or altering cardiac myocyte calcium influx
- F-actin organization [2]: F-actin organization comparable to wt myocytes
- Cy7 decay (clearance) in left or right kidney, or liver [3]: no significant difference
